Read-outs that look alike come from different tables or passages of the source. Numbered stars: 1 amine (or outer) side, 2 acyl side, 3 side chain; on linkers, the order of the positions; unused ones are H or OH. Bridge positions count the residues as written; N and C are the ends. Square brackets hold non-standard residues; d marks the D form. Peptide text beside a SMILES is read from it. I, II: the chains in the order shown. X1 = O=C(CCc1cn(CCOCCOCCOCCC(=O)[*:2])nn1)[*:1]; isoGln = NC(=O)[C@H](CCC(=O)[*:2])N[*:1]
How the values were obtained:
MIA PaCa-2 = test: MTT cell viability, MIA PaCa-2 cells; format: cell-based, human; conditions: MIA PaCa-2 pancreatic ductal adenocarcinoma, p53 Mutant
Description: (§1) Cell viability assay in several human cancer cell lines (See Tables 1 to 10). Cell lines were cultured in RPMI 1640 (or recommended medium when indicated) medium supplemented with 10% fetal calf serum, penicillin (50 IU/mL) and streptomycin ([…]) at 37° C. in 5% CO2. Cell viability studies was carried using the MTT (3-(4,5-dimethylthiazol-2-yl)-2,5-diphenyltetrazolium bromide) assay as previously described (31). Briefly, ≈2×10^3 CRC cells were be seeded in 96-well microtiter plates in 100 μL RPMI 1640 in the presence of 10% calf serum. […] After 1 h, 210 μL/well of full complemented media was added, the cells were grown for 48 h and then treated with 20 μL of a solution of MTT (5 mg/mL) for 2 h. The medium was discarded and DMSO ([…]) was added to each well and incubated with gentle shaking for 20 min at room temperature. The absorbance at 595 nm of the solution is analyzed using a Tecan Genios Multifunctional Microplate Reader (Tecan System Inc) and the background at 670 nm subtracted. RNA-Seq analysis was performed using state-of-the-art bioinformatics tools. Briefly, raw RNA-Seq reads were mapped to human genome (hg38) using STAR aligner (v2.7.3a). Gencode Release 36 reference was used for annotation. Transcript and gene expression levels were quantified using the IsoEM (37) with default parameters. Counts per million (CPM) method is used for normalization. Differential expression was done using DESeq2 with default parameters. Genes involved in different biological pathways (human) were searched from Geneontology (http://geneontology.org/). Bioinformatics results can be validated by using Partek Flow (v10.0.21.0912), a bioinformatics pipeline developed by Zymo Research (https://www.zymoresearch.com/).
(§2) Cell viability was evaluated using the MTT assay as described above.

HPAF-II = test: MTT cell viability, HPAF-II cells; format: cell-based, human; conditions: HPAF-II pancreatic ductal adenocarcinoma, p53 Mutant
Description: as §1, §2

SW480 = test: MTT cell viability, SW480 cells; format: cell-based, human; conditions: SW480 colon adenocarcinoma, p53 Mutant
Description: as §1, §2

PC-3 = test: MTT cell viability, PC-3 cells; format: cell-based; conditions: PC-3 prostate carcinoma, p53 Mutant, read-out: Cell viability, Human Prostate Cancer Cells
Description: (§3) Cell viability assay in several human cancer cell lines (See Tables 1 to 10). Cell lines were cultured in RPMI 1640 (or recommended medium when indicated) medium supplemented with 10% fetal calf serum, penicillin (50 IU/mL) and streptomycin ([…]) at 37° C. in 5% CO2. Cell viability studies was carried using the MTT (3-(4,5-dimethylthiazol-2-yl)-2,5-diphenyltetrazolium bromide) assay as previously described (31). Briefly, ≈2×10^3 CRC cells were be seeded in 96-well microtiter plates in 100 μL RPMI 1640 in the presence of 10% calf serum. After 24 h incubation the cells were washed with PBS and treated with 30 μL/well of PBS or RPMI 1640 (or recommended) media containing cyclotides MCo-52, MCoTI-I (used as negative control), nutlin-3a (used as positive control) or MI-77301 (used as positive control for p53-mutated or p53-null cells) at the indicated doses for 1 h at 37° C. in 5% CO2. After 1 h, 210 μL/well of full complemented media was added, the cells were grown for 48 h and then treated with 20 μL of a solution of MTT (5 mg/mL) for 2 h. The medium was discarded and DMSO ([…]) was added to each well and incubated with gentle shaking for 20 min at room temperature. The absorbance at 595 nm of the solution is analyzed using a Tecan Genios Multifunctional Microplate Reader (Tecan System Inc) and the background at 670 nm subtracted. RNA-Seq analysis was performed using state-of-the-art bioinformatics tools. Briefly, raw RNA-Seq reads were mapped to human genome (hg38) using STAR aligner (v2.7.3a). Gencode Release 36 reference was used for annotation. Transcript and gene expression levels were quantified using the IsoEM (37) with default parameters. Counts per million (CPM) method is used for normalization. Differential expression was done using DESeq2 with default parameters. Genes involved in different biological pathways (human) were searched from Geneontology (http://geneontology.org/). Bioinformatics results can be validated by using Partek Flow (v10.0.21.0912), a bioinformatics pipeline developed by Zymo Research (https://www.zymoresearch.com/).
(§4) Tables 1 through 10 show in vitro activity of cyclotide MCo-52-2-cTAT against different human cancer cell lines, some with null-, mutated, or wildtype p53 phenotypes. Cell viability was evaluated using the MTT assay as described above.

SW626 = test: MTT cell viability, SW626 cells; format: cell-based, human; conditions: p53 Mutant
Description: as §1, §2

SKOV 3 = test: MTT cell viability, SKOV 3 ovarian cells; format: cell-based, human; conditions: p53 Mutant
Description: as §3, §4

PANC-1 = test: MTT cell viability, PANC-1 cells; format: cell-based, human; conditions: PANC-1 pancreatic ductal adenocarcinoma, p53 Mutant
Description: as §1, §2

SW1990 = test: MTT cell viability, SW1990 cells; format: cell-based, human; conditions: SW1990 pancreatic adenocarcinoma, p53 Mutant (Deletion)
Description: as §1, §2

LoVo = test: MTT cell viability, LoVo cells; format: cell-based, human; conditions: LoVo colon adenocarcinoma, p53 WT
Description: as §1, §2

DU145 = test: MTT cell viability, DU145 cells; format: cell-based; conditions: DU145 prostate carcinoma, p53 Mutant, read-out: Cell viability, Human Prostate Cancer Cells
Description: as §3, §4

HT29 = test: MTT cell viability, HT29 cells; format: cell-based, human; conditions: HT29 colon adenocarcinoma, p53 Mutant
Description: as §1, §2

AsPC-1 = test: MTT cell viability, AsPC-1 cells; format: cell-based, human; conditions: AsPC-1 pancreatic ductal adenocarcinoma, p53 Mutant
Description: as §1, §2

ES-2 = test: MTT cell viability, ES-2 ovarian cells; format: cell-based, human; conditions: p53 Mutant
Description: as §3, §4

CFPAC-1 = test: MTT cell viability, CFPAC-1 cells; format: cell-based, human; conditions: CFPAC-1 pancreatic ductal adenocarcinoma, p53 Mutant
Description: as §1, §2

Caco-2 = test: MTT cell viability, Caco-2 cells; format: cell-based, human; conditions: Caco-2 colon adenocarcinoma, p53 Mutant
Description: as §1, §2

SW620 = test: MTT cell viability, SW620 cells; format: cell-based, human; conditions: SW620 colon adenocarcinoma, p53 Mutant
Description: as §1, §2

NIHOVCAR3 = test: MTT cell viability, NIHOVCAR3 ovarian cells; format: cell-based, human; conditions: p53 Mutant
Description: as §3, §4

[1] = SW626 colon adenocarcinoma metastatic site: Ovary, MTT (Table 1), read-out: EC50
[2] = SW626 ovarian cells, MTT (Table 7), read-out: Cell Viability Assay

Compound	EC50 (MIA PaCa-2) [µM]	EC50 (HPAF-II) [µM]	EC50 (SW480) [µM]	EC50 (PC-3) [µM]	EC50 (SW626; [1]) [µM]	EC50 (SW626; [2]) [µM]	EC50 (SKOV 3) [µM]	EC50 (PANC-1) [µM]	EC50 (SW1990) [µM]	EC50 (LoVo) [µM]	EC50 (DU145) [µM]	EC50 (HT29) [µM]	EC50 (AsPC-1) [µM]	EC50 (ES-2) [µM]	EC50 (CFPAC-1) [µM]	EC50 (Caco-2) [µM]	EC50 (SW620) [µM]	EC50 (NIHOVCAR3) [µM]
COc1ccc(C2=N[C@@H](c3ccc(Cl)cc3)[C@@H](c3ccc(Cl)cc3)N2C(=O)N2CCNC(=O)C2)c(OC(C)C)c1 [Nutlin 3A]	> 50	> 50	58.7 ± 7.5	> 100	> 100	50.3 ± 0.2	> 100	41.9 ± 6.9	> 100	1.5 ± 0.1	> 100	> 100	> 100	92.3 ± 1.2	> 50	> 50	> 100	57.7 ± 0.1
N=C(N)NCCC[C@@H]1NC(=O)[C@@H](CCCNC(=N)N)NC(=O)[C@H](CCCCN)NC(=O)[C@@H](N)CCCCNC(=O)CC[C@@H](C(=O)O)NC(=O)[C@@H](CCCNC(=N)N)NC(=O)[C@H](CCCNC(=N)N)NC(=O)[C@@H](CCCCN)NC(=O)[C@H](CCCCN)NC(=O)[C@@H](CCCNC(=N)N)NC(=O)CNC(=O)[C@@H](CCCNC(=N)N)NC1=O [cTAT] (H-KK[dR]R[dR]G[dR]K[dK]R[dR]E-OH; lactam 1-12; N-terminus and C-terminus assumed)	> 100	> 100	> 100	> 100	> 100	> 100	> 100	> 100	> 100	> 100	> 100	> 100	> 100	> 100	> 100	> 100	> 100	> 100
I: cyclo(ACICRHDSYCGSGSDGGVCPNLYLLCRRDKDCPG) / II: KK[dR]R[dR]G[dR]K[dK]R[dR][isoGln] (disulfide I:2-I:19, I:4-I:26, I:10-I:32; linker I:30-II:N via X1; lactam II:1-II:C) [Cyclotide 52-2-cTAT]	15.4 ± 1.6	14.6 ± 1.8	10.9 ± 1.3	23.2 ± 0.6	–	27.5 ± 0.7	19.1 ± 0.1	20.5 ± 2.5	11.9 ± 1.3	10.7 ± 0.9	37 ± 1.2	9.9 ± 0.9	11.5 ± 1.5	6.38 ± 0.1	13.4 ± 1.8	11.7 ± 0.8	15.3 ± 2	7.8 ± 0.1

Reference: patent publication US20250325684A1, “POTENT ANTI-CANCER CYCLOTIDES” (University of Southern California, priority 2022, published 2025)
